Columns and labels:
Test in all cases: KINOMEscan (ScanMAX) kinase profiling
Assay type in all cases: binding
[1] = target: T1, panel of 468 kinases (Homo sapiens, UniProt P51813); settings: BMX; 1 μM; read-out: % control
T1 construct: purchased KINOMEscan (ScanMAX) service
T1 sequence (P51813 1-675): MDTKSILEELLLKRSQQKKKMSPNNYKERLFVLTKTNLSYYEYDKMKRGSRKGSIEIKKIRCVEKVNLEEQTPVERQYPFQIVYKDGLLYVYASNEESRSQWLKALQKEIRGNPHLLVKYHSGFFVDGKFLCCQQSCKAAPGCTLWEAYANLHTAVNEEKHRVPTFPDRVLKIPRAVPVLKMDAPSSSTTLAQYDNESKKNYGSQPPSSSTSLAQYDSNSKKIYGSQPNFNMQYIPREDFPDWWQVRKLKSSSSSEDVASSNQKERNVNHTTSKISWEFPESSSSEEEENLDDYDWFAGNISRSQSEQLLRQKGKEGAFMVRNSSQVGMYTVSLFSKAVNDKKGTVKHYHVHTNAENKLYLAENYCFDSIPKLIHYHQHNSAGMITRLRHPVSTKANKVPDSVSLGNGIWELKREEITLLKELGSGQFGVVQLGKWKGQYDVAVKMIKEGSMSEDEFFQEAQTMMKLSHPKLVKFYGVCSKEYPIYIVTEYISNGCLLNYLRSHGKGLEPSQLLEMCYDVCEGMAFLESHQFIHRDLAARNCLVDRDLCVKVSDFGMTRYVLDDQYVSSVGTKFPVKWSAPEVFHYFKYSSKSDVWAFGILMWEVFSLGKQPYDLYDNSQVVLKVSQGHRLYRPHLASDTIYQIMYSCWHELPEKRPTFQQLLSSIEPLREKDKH

[2] = target: T2, panel of 468 kinases (Homo sapiens, UniProt P78356); settings: PIP5K2B; 1 μM; read-out: % control
T2 construct: purchased KINOMEscan (ScanMAX) service
T2 sequence (P78356 1-416): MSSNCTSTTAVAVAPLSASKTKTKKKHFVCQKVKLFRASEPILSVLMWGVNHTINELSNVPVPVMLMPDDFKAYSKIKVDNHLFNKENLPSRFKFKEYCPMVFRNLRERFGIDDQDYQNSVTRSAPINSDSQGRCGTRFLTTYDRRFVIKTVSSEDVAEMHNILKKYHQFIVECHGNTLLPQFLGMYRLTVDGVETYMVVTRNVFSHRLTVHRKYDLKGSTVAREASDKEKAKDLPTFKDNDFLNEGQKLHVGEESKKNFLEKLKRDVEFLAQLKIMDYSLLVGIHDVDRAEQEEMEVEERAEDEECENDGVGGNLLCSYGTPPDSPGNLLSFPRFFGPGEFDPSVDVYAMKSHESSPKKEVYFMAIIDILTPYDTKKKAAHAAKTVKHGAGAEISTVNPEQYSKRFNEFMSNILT

[3] = target: T3, panel of 468 kinases (Homo sapiens, UniProt P29322); settings: EPHA8; 1 μM; read-out: % control
T3 construct: purchased KINOMEscan (ScanMAX) service
T3 sequence (P29322 28-1005): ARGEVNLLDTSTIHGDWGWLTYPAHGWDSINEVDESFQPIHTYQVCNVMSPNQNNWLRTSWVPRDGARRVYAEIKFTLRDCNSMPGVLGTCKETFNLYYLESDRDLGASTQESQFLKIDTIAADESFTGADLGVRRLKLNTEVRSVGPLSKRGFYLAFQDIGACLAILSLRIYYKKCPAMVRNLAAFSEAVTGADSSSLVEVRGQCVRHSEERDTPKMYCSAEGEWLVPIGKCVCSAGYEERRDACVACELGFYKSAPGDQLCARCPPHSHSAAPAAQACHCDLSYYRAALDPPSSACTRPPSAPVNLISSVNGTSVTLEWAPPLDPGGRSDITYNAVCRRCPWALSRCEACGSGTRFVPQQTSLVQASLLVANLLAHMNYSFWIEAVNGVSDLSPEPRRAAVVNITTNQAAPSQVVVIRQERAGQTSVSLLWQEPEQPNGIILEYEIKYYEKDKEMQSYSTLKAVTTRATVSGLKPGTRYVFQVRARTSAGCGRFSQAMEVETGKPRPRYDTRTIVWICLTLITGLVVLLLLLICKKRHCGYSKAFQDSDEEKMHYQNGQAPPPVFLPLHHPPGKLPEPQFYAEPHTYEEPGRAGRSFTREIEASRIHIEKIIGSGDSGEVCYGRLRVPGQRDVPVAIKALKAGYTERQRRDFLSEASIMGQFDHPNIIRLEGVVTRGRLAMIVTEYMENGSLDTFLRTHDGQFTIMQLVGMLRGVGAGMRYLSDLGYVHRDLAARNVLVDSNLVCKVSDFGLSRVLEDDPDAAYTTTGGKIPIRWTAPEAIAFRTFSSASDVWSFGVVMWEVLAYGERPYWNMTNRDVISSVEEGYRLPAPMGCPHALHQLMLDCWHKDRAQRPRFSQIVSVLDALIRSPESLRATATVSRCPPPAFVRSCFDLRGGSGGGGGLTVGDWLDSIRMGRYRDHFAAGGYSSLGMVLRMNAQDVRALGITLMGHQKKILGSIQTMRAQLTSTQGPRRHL

[4] = target: T4, panel of 468 kinases (Homo sapiens, UniProt Q8N5S9); settings: CAMKK1; 1 μM; read-out: % control
T4 construct: purchased KINOMEscan (ScanMAX) service
T4 sequence (Q8N5S9 whole entry): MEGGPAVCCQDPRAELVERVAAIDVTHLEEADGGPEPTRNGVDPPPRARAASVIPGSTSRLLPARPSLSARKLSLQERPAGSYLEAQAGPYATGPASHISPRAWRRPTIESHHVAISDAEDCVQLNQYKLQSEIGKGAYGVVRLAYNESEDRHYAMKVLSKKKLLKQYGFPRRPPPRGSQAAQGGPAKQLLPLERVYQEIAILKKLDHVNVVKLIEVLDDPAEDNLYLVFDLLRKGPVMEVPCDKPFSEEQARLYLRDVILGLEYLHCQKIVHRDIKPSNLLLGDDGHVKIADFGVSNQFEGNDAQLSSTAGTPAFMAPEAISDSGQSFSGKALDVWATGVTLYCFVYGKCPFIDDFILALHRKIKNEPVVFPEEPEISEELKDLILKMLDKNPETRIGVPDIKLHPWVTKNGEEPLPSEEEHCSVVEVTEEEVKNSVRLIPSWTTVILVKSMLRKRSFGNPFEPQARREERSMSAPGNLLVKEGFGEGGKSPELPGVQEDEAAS

[5] = target: T5, panel of 468 kinases (Homo sapiens, UniProt O43683); settings: BUB1; 1 μM; read-out: % control
T5 construct: purchased KINOMEscan (ScanMAX) service
T5 sequence (O43683 whole entry): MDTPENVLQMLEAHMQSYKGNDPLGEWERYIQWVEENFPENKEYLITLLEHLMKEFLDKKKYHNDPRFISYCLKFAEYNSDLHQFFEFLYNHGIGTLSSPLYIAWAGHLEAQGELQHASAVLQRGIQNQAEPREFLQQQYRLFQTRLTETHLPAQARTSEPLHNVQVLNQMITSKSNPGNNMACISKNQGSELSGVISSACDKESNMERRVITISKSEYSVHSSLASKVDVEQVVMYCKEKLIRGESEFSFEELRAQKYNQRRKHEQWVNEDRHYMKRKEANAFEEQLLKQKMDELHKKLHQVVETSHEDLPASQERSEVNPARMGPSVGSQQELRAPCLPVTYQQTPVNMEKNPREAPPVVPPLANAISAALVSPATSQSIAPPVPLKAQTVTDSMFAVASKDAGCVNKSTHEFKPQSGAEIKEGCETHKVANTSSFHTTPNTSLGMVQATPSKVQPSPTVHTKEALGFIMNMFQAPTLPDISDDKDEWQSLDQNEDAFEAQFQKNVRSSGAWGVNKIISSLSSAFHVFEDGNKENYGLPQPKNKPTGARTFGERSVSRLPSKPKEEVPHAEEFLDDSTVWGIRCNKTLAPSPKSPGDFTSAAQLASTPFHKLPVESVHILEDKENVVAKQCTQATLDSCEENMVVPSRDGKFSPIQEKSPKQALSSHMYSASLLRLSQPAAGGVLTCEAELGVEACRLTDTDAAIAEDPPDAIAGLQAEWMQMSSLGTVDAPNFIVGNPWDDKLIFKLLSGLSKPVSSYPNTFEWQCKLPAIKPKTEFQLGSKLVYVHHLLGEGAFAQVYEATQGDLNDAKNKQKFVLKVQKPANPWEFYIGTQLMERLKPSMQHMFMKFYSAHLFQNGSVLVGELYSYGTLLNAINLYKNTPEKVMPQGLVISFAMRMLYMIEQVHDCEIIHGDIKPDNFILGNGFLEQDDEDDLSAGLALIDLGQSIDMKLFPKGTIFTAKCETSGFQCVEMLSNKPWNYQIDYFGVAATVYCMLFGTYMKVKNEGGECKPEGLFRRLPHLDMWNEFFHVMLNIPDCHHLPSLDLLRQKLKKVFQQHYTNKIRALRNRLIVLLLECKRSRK

CNc1nc(Nc2ccc(C(=O)N3CCC(N4CCOCC4)CC3)c3c2OCO3)nc2[nH]cc(Cl)c12 [Compound 75, (7-((5-chloro-4-(methylamino)-7H-pyrrolo[2,3-d]pyrimidin-2-yl)amino)benzo[d][1,3]dioxol-4-yl)(4-morpholinopiperidin-1-yl)methanone]
remaining binding at 1 µM [1]: 97%
remaining binding at 1 µM [2]: 97%
remaining binding at 1 µM [3]: 100%
remaining binding at 1 µM [4]: 95%
remaining binding at 1 µM [5]: 49%

CNc1nc(Nc2ccc(S(=O)(=O)N3CCC(N4CCOCC4)CC3)cc2OC)nc2[nH]cc(Cl)c12 [Compound 12, 5-chloro-N2-(2-methoxy-4-((4-morpholinopiperidin-1-yl)sulfonyl)phenyl)-N4-methyl-7H-pyrrolo[2,3-d]pyrimidine-2,4-diamine]
remaining binding at 1 µM [1]: 97%
remaining binding at 1 µM [2]: 100%
remaining binding at 1 µM [3]: 100%
remaining binding at 1 µM [4]: 100%
remaining binding at 1 µM [5]: 60%

CNc1nc(Nc2ccc(P3(=O)CCN(C4CCOCC4)CC3)cc2OC)nc2[nH]cc(Cl)c12 [Compound 77, 4-(4-((5-chloro-4-(methylamino)-7H-pyrrolo[2,3-d]pyrimidin-2-yl)amino)-3-methoxyphenyl)-1-(tetrahydro-2H-pyran-4-yl)-1,4-azaphosphinane 4-oxide]
remaining binding at 1 µM [1]: 99%
remaining binding at 1 µM [2]: 100%
remaining binding at 1 µM [3]: 100%
remaining binding at 1 µM [4]: 83%
remaining binding at 1 µM [5]: 61%

From US12479847B2 (DANA-FARBER CANCER INSTITUTE, INC., priority 2019, dated 2025)
